Assay results reported in patent US9890117B2, “Benzamide compounds and related methods of use” (Northwestern University, priority 2012, dated 2018).

Legend:
[1] = cited from earlier work
[2] = Microsomal stability screen, human; conditions: 1 μM
[3] = tested on: α-tubulin K40 acetylation (SIRT2 substrate) in N2a cells; experiment: α-tubulin K40 acetylation (Western) in neuronal N2a cells; format: cell-based; conditions: N2a cells, 10, 25, 50 μM, 6 h
Description: FIGS. 2A-B. Cell-based assay for evaluating the bioactivity of SIRT2 inhibitors. A) Extracts from neuronal N2a cells treated with 61 and 64 for 6 h were resolved on SDS-PAGE and analyzed by Western analysis using antibodies specific to acetylated α-tubulin, and normalized to GADPH and total α-tubulin (not shown) levels.
(§1) To assess SIRT2 inhibition activity in cells, an increase in α-tubulin K40 acetylation (α-tubulin is a substrate for SIRT2) in neuronal N2a and in wild type and HD ST141 cell lines was measured. In this bioactivity test, extracts from compound-treated cells were resolved on SDS-PAGE and subjected to Western analysis using primary antibodies specific to K40 acetylated α-tubulin. Trichostatin A (TSA), a potent HDAC inhibitor, was used as a positive control. To normalize the levels of acetylated α-tubulin we used total α-tubulin and GADPH proteins, detected by Western reactive antibodies specific to total α-tubulin and GADPH. […] FIGS. 2A-B show the bioactivity of 61 and 64 in N2a cells at three tested concentrations (10, 25, and 50 μM). Toxicity of the compounds was monitored in both cell lines, and most of them were non-toxic up to 50 μM in a 6 h treatment.

[4] = Microsomal stability screen, mouse; conditions: 1 μM
[5] = tested on: WT st14a cells; experiment: Toxicity monitoring in WT st14a cells; format: cell-based; conditions: up to 18 h treatment
[6] = tested on: N2a cells; experiment: Toxicity monitoring in N2a cells; format: cell-based
Description: as §1

[7] = molecular target: T1, SIRT1 (Homo sapiens, UniProt Q96EB6); experiment: Fluor-de-Lys biochemical sirtuin deacetylation assay, SIRT1 counter-screen; conditions: 10 μM counter-screen
T1 sequence (Q96EB6 1-747): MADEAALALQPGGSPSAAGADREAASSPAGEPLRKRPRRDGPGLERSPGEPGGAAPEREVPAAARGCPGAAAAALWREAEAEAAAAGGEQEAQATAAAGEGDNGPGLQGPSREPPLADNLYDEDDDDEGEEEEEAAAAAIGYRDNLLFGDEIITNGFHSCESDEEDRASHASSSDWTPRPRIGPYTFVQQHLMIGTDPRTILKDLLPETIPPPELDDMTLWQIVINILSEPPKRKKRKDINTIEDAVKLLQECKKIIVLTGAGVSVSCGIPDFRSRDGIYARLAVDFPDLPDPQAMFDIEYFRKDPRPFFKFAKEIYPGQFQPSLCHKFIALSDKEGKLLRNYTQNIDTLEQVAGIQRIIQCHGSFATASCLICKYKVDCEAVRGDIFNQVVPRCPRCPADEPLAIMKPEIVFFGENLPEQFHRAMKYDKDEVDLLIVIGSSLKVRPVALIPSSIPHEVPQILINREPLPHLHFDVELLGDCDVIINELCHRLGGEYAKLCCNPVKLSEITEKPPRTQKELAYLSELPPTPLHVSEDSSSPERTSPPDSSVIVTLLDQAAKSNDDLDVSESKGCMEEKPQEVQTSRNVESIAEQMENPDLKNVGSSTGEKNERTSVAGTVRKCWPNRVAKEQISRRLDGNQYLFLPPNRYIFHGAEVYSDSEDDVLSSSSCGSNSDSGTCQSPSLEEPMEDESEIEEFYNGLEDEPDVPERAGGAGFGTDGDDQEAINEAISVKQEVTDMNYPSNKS
Description: To evaluate the potency and selectivity of the synthesized compounds robust, sensitive, and quantitative, biochemical sirtuin deacetylation assays were employed. (SIRT2 then SIRT1 and SIRT3 for selectivity). Sirtuin activity was assessed using the Fluor-de-Lys assay with recombinant active enzymes SIRT1, SIRT2, and the catalytically active fragment of SIRT3, as described in the literature. […] AK-1 was included as the reference compound with each assay. […] Those compounds also were subjected to SIRT1 and SIRT3 assays to determine sirtuin selectivity.
As discussed above, Tables 1-10 are presented and followed by details relating to the synthesis and characterization of compounds prepared. Inhibition assays and related testing of such compounds are conducted according to well-known literature protocols including those found in Silverman, et al., Biorg. Med. Chem. Lett. 22 (2012) 2789-2793 and the references cited therein, such references and tests incorporated herein by reference.

[8] = tested on: α-tubulin K40 acetylation (SIRT2 substrate) in wild type and HD ST141 cell lines; experiment: α-tubulin K40 acetylation (Western) in wild type and HD ST141 cell lines; format: cell-based
Description: as §1

[9] = molecular target: T2, SIRT2 (Homo sapiens, UniProt Q8IXJ6); experiment: Fluor-de-Lys biochemical sirtuin deacetylation assay, SIRT2; conditions: dose-response, five doses, side-by-side with AK-1
T2 construct: recombinant active enzymes SIRT1, SIRT2, and the catalytically active fragment of SIRT3
T2 sequence (Q8IXJ6 1-389): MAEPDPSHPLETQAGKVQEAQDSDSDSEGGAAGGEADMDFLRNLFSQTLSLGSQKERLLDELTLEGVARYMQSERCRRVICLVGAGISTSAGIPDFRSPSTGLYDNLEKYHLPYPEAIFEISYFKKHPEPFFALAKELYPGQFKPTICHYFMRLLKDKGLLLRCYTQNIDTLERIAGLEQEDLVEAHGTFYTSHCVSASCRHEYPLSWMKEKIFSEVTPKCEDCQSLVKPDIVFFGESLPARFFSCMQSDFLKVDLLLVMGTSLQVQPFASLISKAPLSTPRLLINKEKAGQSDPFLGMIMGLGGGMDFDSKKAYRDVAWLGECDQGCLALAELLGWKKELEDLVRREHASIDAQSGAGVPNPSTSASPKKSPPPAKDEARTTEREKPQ

[10] = tested on: huntingtin (htt) aggregation; conditions: R6/2 mice; cited from earlier work
[11] = tested on: polyQ aggregation; conditions: cell-based model; read-out: suppression of aggregation, EC50; cited from earlier work
[12] = tested on: htt aggregation; conditions: 140 CAG knock-in model of HD; cited from earlier work
[13] = in vivo; cited from earlier work

**Q.** For `O=C(Nc1cccc([N+](=O)[O-])c1)c1cccc(S(=O)(=O)N2CCCCCC2)c1` [AK-1], which aqueous solubility [1] is on record?
**A.** low aqueous solubility

**Q.** For `O=C(Nc1cccc(Br)c1)c1cccc(S(=O)(=O)N2CCCCCC2)c1` [AK-7], which aqueous solubility [1] is on record?
**A.** low aqueous solubility

**Q.** Which “Mean remaining parent NADPH-free (%)” value [2] does the source give for `CN(c1ccc(Cl)cc1)S(=O)(=O)c1cccc(C(=O)Nc2ccc(S(C)(=O)=O)cc2)c1` [Compound 61, 3-(N-(4-Chlorophenyl)-N-methylsulfamoyl)-N-(4-(methylsulfonyl)phenyl)benzamide] here?
**A.** 112%

**Q.** And the “Mean remaining parent with NADPH (%)” value [2]?
**A.** 2%

**Q.** And the “increase in α-tubulin K40 acetylation” value [3]?
**A.** dose-dependent increase

**Q.** What about the “Mean remaining parent NADPH-free (%)” value [4] of the same molecule?
**A.** 100%

**Q.** And the “Mean remaining parent with NADPH (%)” value [4]?
**A.** 4%

**Q.** With `CN(c1ccc(Cl)cc1)S(=O)(=O)c1cccc(C(=O)Nc2ccc(C#N)cc2)c1` [Compound 64, 3-(N-(4-Chlorophenyl)-N-methylsulfamoyl)-N-(4-cyanophenyl)benzamide] as the molecule, how does the “increase in α-tubulin K40 acetylation” value [3] read?
**A.** dose-dependent increase

**Q.** Which results are given for `COc1ccc(N(C)S(=O)(=O)c2cccc(C(=O)Nc3ccc(C#N)cc3)c2)cc1` [Compound 90, N-(4-Cyanophenyl)-3-(N-(4-methoxyphenyl)-N-methylsulfamoyl)benzamide]?
**A.** toxicity [5]: no toxicity was observed; Mean remaining parent NADPH-free (%) [2]: 106%; Mean remaining parent with NADPH (%) [2]: 2%; toxicity ([6]; 25 μM): partially toxic; toxicity ([6]; 50 μM): toxic; Mean remaining parent NADPH-free (%) [4]: 90%; Mean remaining parent with NADPH (%) [4]: 2%

**Q.** With `CN(c1ccc(S(C)(=O)=O)cc1)S(=O)(=O)c1cccc(C(=O)Nc2ccc(C#N)cc2)c1` [Compound 115, N-(4-Cyanophenyl)-3-(N-methyl-N-(4-(methylsulfonyl)phenyl)sulfamoyl)benzamide] as the molecule, how does the “SIRT1 inhibition” value [7] read?
**A.** minimal SIRT1 inhibition

**Q.** And the “increase in α-tubulin K40 acetylation” value [8]?
**A.** did not show any significant increase

**Q.** What about the “SIRT2 inhibition potency compared with AK-1” value [9] of the same molecule?
**A.** significantly more potent

**Q.** What about the “increase in α-tubulin K40 acetylation” value [3] of the same molecule?
**A.** did not show any significant increase

**Q.** What does the source list for `O=C(Nc1ccc(Br)cc1)c1cccc(S(=O)(=O)Nc2ccc(Br)cc2)c1` [Compound C2-8]?
**A.** inhibition of huntingtin (htt) aggregation in the striatum [10]: 25-30%; EC50 [11]: 50 nM; aqueous solubility [1]: low aqueous solubility; reduction of htt aggregation [12]: 50%; toxicity in acute and chronic tolerability studies [13]: not toxic
